In patent publication US20050043180A1, “Optically active herbicidal (r)-phenoxypropionic acid-n-methyl-n-2-fluorophenyl amides” (priority 2001, published 2005):

Tests used:
[1] = system: Barnyard grass (ECHCG, Echinochloa crus-galli Beauv. var. caudata Kitagawa); assay: Leaf treatment test, herbicidal activity on barnyard grass; type: in vivo
Procedure: (§1) Experimental Example 1: Leaf Treatment Test
Seeds of rice, wheat, barley, corn, cotton, barnyard grass, common sorgum, large crabgrass and fall panicum were seeded at a pot with a surface area of 600 cm^2. […], wettable powder prepared by mixing 1 part by weight of the active compound, 5 parts by weight of acetone and 1 part by weight of emulsifier and diluted with water was applied directly to the leaves in 2000 L per hectare. The concentration of the spray liquid was so chosen the particular amounts of the active compound desired. 14 days after the treatment, the degree of damage to the plants was rated in % damage in comparison to the development of untreated control.

[2] = system: Rice (ORYSA, Oryza sativa L. cv. Dongjin); assay: Leaf treatment test, damage to rice; type: in vivo
Procedure: as §1
Seeds of rice, wheat, barley, corn, cotton, barnyard grass, common sorgum, large crabgrass and fall panicum were seeded at a pot with a surface area of 600 cm^2. When barnyard grass grown in a green house kept at 20-30° C. had three leaves, wettable powder prepared by mixing 1 part by weight of the active compound, 5 parts by weight of acetone and 1 part by weight of emulsifier and diluted with water was applied directly to the leaves in 2000 L per hectare. The concentration of the spray liquid was so chosen the particular amounts of the active compound desired. 14 days after the treatment, the degree of damage to the plants was rated in % damage in comparison to the development of untreated control.

[3] = leaf treatment 2 g/ha, 14 days after treatment
[4] = leaf treatment 4 g/ha, 14 days after treatment
[5] = leaf treatment 8 g/ha, 14 days after treatment
[6] = leaf treatment 16 g/ha, 14 days after treatment
[7] = leaf treatment 32 g/ha, 14 days after treatment
[8] = leaf treatment 63 g/ha, 14 days after treatment
[9] = leaf treatment 125 g/ha, 14 days after treatment
[10] = leaf treatment 250 g/ha, 14 days after treatment
[11] = leaf treatment 500 g/ha, 14 days after treatment
[12] = leaf treatment 1000 g/ha, 14 days after treatment
[13] = leaf treatment 2000 g/ha, 14 days after treatment
[14] = leaf treatment 4000 g/ha, rated 14 days after treatment vs untreated control, 0% no effect, 100% total destruction

SMILES: CC(Oc1ccc(Oc2nc3ccc(Cl)cc3o2)cc1)C(=O)N(C)c1ccccc1F (racemic) [R,S-racemic compound]
- % damage, Barnyard grass (4 leaves) [1, 3]: 0.0%
- % damage, Barnyard grass (4 leaves) [1, 4]: 2.5%
- % damage, Barnyard grass (4 leaves) [1, 5]: 45.0%
- % damage, Barnyard grass (4 leaves) [1, 6]: 100%
- % damage, Barnyard grass (4 leaves) [1, 7]: 100%
- % damage, Barnyard grass (4 leaves) [1, 8]: 100%
- % damage, Barnyard grass (4 leaves) [1, 9]: 100%
- % damage, Barnyard grass (4 leaves) [1, 10]: 100%
- % damage, Barnyard grass (4 leaves) [1, 11]: 100%
- % damage, Barnyard grass (4 leaves) [1, 12]: 100%
- % damage, Barnyard grass (4 leaves) [1, 13]: 100%
- % damage, Barnyard grass (4 leaves) [1, 14]: 100%
- % damage, Rice (4 leaves) [2, 3]: 0.0%
- % damage, Rice (4 leaves) [2, 4]: 0.0%
- % damage, Rice (4 leaves) [2, 5]: 0.0%
- % damage, Rice (4 leaves) [2, 6]: 0.0%
- % damage, Rice (4 leaves) [2, 7]: 0.0%
- % damage, Rice (4 leaves) [2, 8]: 0.0%
- % damage, Rice (4 leaves) [2, 9]: 0.0%
- % damage, Rice (4 leaves) [2, 10]: 0.0%
- % damage, Rice (4 leaves) [2, 11]: 0.0%
- % damage, Rice (4 leaves) [2, 12]: 0.0%
- % damage, Rice (4 leaves) [2, 13]: 0.0%
- % damage, Rice (4 leaves) [2, 14]: 3.8%

SMILES: C[C@@H](Oc1ccc(Oc2nc3ccc(Cl)cc3o2)cc1)C(=O)N(C)c1ccccc1F [(R)-compound, (R)-2-[4-(6-chloro-2-benzoxazolyloxy)-phenoxy]propionic acid-N-(2-fluorophenyl)-N-methyl amide]
- % damage, Barnyard grass (4 leaves) [1, 3]: 6.3%
- % damage, Barnyard grass (4 leaves) [1, 4]: 62.5%
- % damage, Barnyard grass (4 leaves) [1, 5]: 98.8%
- % damage, Barnyard grass (4 leaves) [1, 6]: 100%
- % damage, Barnyard grass (4 leaves) [1, 7]: 100%
- % damage, Barnyard grass (4 leaves) [1, 8]: 100%
- % damage, Barnyard grass (4 leaves) [1, 9]: 100%
- % damage, Barnyard grass (4 leaves) [1, 10]: 100%
- % damage, Barnyard grass (4 leaves) [1, 11]: 100%
- % damage, Barnyard grass (4 leaves) [1, 12]: 100%
- % damage, Barnyard grass (4 leaves) [1, 13]: 100%
- % damage, Barnyard grass (4 leaves) [1, 14]: 100%
- % damage, Rice (4 leaves) [2, 3]: 0.0%
- % damage, Rice (4 leaves) [2, 4]: 0.0%
- % damage, Rice (4 leaves) [2, 5]: 0.0%
- % damage, Rice (4 leaves) [2, 6]: 0.0%
- % damage, Rice (4 leaves) [2, 7]: 0.0%
- % damage, Rice (4 leaves) [2, 8]: 0.0%
- % damage, Rice (4 leaves) [2, 9]: 0.0%
- % damage, Rice (4 leaves) [2, 10]: 0.0%
- % damage, Rice (4 leaves) [2, 11]: 0.0%
- % damage, Rice (4 leaves) [2, 12]: 2.5%
- % damage, Rice (4 leaves) [2, 13]: 11.3%
- % damage, Rice (4 leaves) [2, 14]: 22.5%

SMILES: C[C@H](Oc1ccc(Oc2nc3ccc(Cl)cc3o2)cc1)C(=O)N(C)c1ccccc1F [(S)-compound]
- % damage, Barnyard grass (4 leaves) [1, 3]: 0.0%
- % damage, Barnyard grass (4 leaves) [1, 4]: 0.0%
- % damage, Barnyard grass (4 leaves) [1, 5]: 7.5%
- % damage, Barnyard grass (4 leaves) [1, 6]: 65.0%
- % damage, Barnyard grass (4 leaves) [1, 7]: 92.5%
- % damage, Barnyard grass (4 leaves) [1, 8]: 100%
- % damage, Barnyard grass (4 leaves) [1, 9]: 100%
- % damage, Barnyard grass (4 leaves) [1, 10]: 100%
- % damage, Barnyard grass (4 leaves) [1, 11]: 100%
- % damage, Barnyard grass (4 leaves) [1, 12]: 100%
- % damage, Barnyard grass (4 leaves) [1, 13]: 100%
- % damage, Barnyard grass (4 leaves) [1, 14]: 100%
- % damage, Rice (4 leaves) [2, 3]: 0.0%
- % damage, Rice (4 leaves) [2, 4]: 0.0%
- % damage, Rice (4 leaves) [2, 5]: 0.0%
- % damage, Rice (4 leaves) [2, 6]: 0.0%
- % damage, Rice (4 leaves) [2, 7]: 0.0%
- % damage, Rice (4 leaves) [2, 8]: 0.0%
- % damage, Rice (4 leaves) [2, 9]: 0.0%
- % damage, Rice (4 leaves) [2, 10]: 0.0%
- % damage, Rice (4 leaves) [2, 11]: 0.0%
- % damage, Rice (4 leaves) [2, 12]: 0.0%
- % damage, Rice (4 leaves) [2, 13]: 0.0%
- % damage, Rice (4 leaves) [2, 14]: 0.0%
